Assay results reported in paper PMC8759730, “Targeting allosteric sites of human aromatase: a comprehensive in-silico and in-vitro workflow to find potential plant-based anti-breast cancer therapeutics” (Journal of Enzyme Inhibition and Medicinal Chemistry, 2021).
Like-named read-outs stand apart in the source and are kept apart here.

Key:
[1] = test system: MDA-MB-231 (ER-) cells; assay: Antiproliferative assay, MDA-MB-231; format: cell-based
[2] = molecular target: T1, Recombinant Human Aromatase (HA) (Homo sapiens, UniProt P11511); assay: HA inhibition assay (Aromatase Inhibitor Screening Kit, fluorogenic substrate); format: biochemical; settings: for Ki: values inside parenthesis, unit inferred, read-out: HA (Ki), inhibition constant (converted)
T1 sequence (P11511 1-503): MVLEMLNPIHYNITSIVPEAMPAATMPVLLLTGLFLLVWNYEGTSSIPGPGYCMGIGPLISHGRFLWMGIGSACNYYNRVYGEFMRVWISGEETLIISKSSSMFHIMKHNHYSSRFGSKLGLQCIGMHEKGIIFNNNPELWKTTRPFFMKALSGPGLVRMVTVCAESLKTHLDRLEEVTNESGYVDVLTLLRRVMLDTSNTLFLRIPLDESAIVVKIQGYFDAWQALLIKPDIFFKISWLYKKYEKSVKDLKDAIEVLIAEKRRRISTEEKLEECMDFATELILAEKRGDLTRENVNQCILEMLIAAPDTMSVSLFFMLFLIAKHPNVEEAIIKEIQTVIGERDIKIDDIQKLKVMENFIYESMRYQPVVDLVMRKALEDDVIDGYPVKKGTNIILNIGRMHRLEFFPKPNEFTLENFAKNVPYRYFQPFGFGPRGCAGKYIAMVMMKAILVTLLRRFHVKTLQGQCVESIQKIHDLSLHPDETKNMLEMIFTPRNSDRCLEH

[3] = test system: MCF-7 (ER+) cells; assay: Antiproliferative assay, MCF-7; format: cell-based; settings: for IC50: read-out: MCF-7 IC50
[4] = Homo sapiens, MDA-MB-231, 72 h, read-out: MDA-MB-231 IC50
[5] = tested at 200-0.1 µM, triplicate, read-out: HA IC50
[6] = Homo sapiens, MDA-MB-231, 72 h, 72 h; read-out: MDA-MB-231 IC50
[7] = kinetic experiments at varied substrate concentration
[8] = Homo sapiens, MCF7, 72 h, 72 h, with 10 µM testosterone undecanoate

| SMILES | HA inhibitory activity (in words) [2] | IC50 [2, 5] [µM] | IC50 [1, 6] [µM] | IC50 [3, 8] [µM] | also measured |
| --- | --- | --- | --- | --- | --- |
| CC1=CC(=O)CC(C)(C)[C@@]1(O)/C=C/C(C)=C\C(=O)O [Abscisic acid] | inactive | > 100 | – | – | Activity against MDA-MB-231 (in words) [1]: inactive; IC50 [1, 4]: > 100 µM; Activity against MCF-7 (in words) [3]: inactive; IC50 ([3]; Homo sapiens, MCF7, 72 h): > 100 µM |
| O=c1cc(-c2ccc(O)cc2)oc2cc(O)cc(O)c12 [Apigenin] | – | – | – | – | IC50 [1, 4]: 60 ± 1.6 µM; IC50 ([3]; Homo sapiens, MCF7, 72 h): 13.6 ± 3.5 µM |
| COc1ccc2cc3[n+](cc2c1OC)CCc1cc2c(cc1-3)OCO2 [Berberine] | – | 21.4 ± 0.9 | > 100 | 10.2 ± 2.6 | Mode of inhibition [2, 7]: Non-competitive; Mode of inhibition ([2]; kinetic experiments at varied substrate concentration, listed as berberine): non-competitive inhibition; Ki [2]: 20.1 µM |
| C=C(C)[C@@H]1CC[C@]2(CO)CC[C@]3(C)[C@H](CC[C@@H]4[C@@]5(C)CC[C@H](O)C(C)(C)[C@@H]5CC[C@]43C)[C@@H]12 [Betulin] | very weak inhibitory activity | – | – | – | Activity against MDA-MB-231 (in words) [1]: very weak inhibitory activity; IC50 ([1]; Homo sapiens, MDA-MB-231, 72 h; read-out: MDA-MB-231 IC50): > 100 µM; IC50 [2]: 95.3 µM; Mode of inhibition [2]: Non-competitive; Activity against MCF-7 (in words) [3]: very weak inhibitory activity; IC50 ([3]; Homo sapiens, MCF7, 72 h): 67 ± 2.6 µM |
| O=c1cc(-c2ccccc2)oc2cc(O)cc(O)c12 [Chrysin] | – | – | 65 ± 2.3 | 7.8 ± 2.8 | – |
| N#Cc1ccc(C(c2ccc(C#N)cc2)n2cncn2)cc1 [Letrozole, reference compound] | – | – | 41.3 ± 2.1 | 5.6 ± 1.1 | – |
| CC(C)=CCc1c2c(c3occ(-c4ccc(O)c(O)c4)c(=O)c3c1O)C=CC(C)(C)O2 [Pomiferin] | – | 15.1 ± 0.5 | 30.9 ± 3.1 | 5.4 ± 2.2 | Mode of inhibition [2, 7]: Non-competitive; Mode of inhibition ([2]; kinetic experiments at varied substrate concentration, listed as pomiferin): non-competitive inhibition; Ki [2]: 14.8 µM |
| Oc1ccc(/C=C/c2cc(O)cc(O)c2)cc1 [Resveratrol] | – | – | 38 ± 3.5 | 11 ± 2.2 | – |
| C[C@@H]1O[C@@H](OC[C@H]2O[C@@H](Oc3c(-c4ccc(O)c(O)c4)oc4cc(O)cc(O)c4c3=O)[C@H](O)[C@@H](O)[C@@H]2O)[C@H](O)[C@H](O)[C@H]1O [Rutin] | inactive | > 100 | > 100 | > 100 | Activity against MDA-MB-231 (in words) [1]: inactive; Activity against MCF-7 (in words) [3]: inactive |
| COc1ccc(-c2cc(=O)c3c(OC)c(OC)c(OC)c(OC)c3o2)cc1 [Tangeretin] | inactive | > 100 | 45.6 ± 3.8 | 30.3 ± 2.1 | – |
| Cc1coc2c1C(=O)C(=O)c1c-2ccc2c1CCCC2(C)C [Tanshinone IIA] | – | 42.5 ± 1.2 | ~2.1 | ~2.1 | IC50 ([1]; 72 h; read-out: MDA-MB-231 IC50): 3.7 ± 1.7 µM; Mode of inhibition [2, 7]: Non-competitive; Ki [2]: 40.9 µM; IC50 ([3]; 72 h, with 10 µM testosterone undecanoate): 1.4 ± 1.3 µM |
